{
  "source": "patent US6191138A",
  "about": "“Phenanthridines” (Byk Gulden Lomberg Chemische Fabrik GmbH, priority 1996, dated 2001)",
  "data": [
    {"tested_on": "PDE IV", "assay": "Inhibition of PDE IV Activity (method of Bauer and Schwabe, adapted to microtiter plates)", "assay_type": "biochemical", "values": [
      {"smiles": "CCOc1cc2c(cc1OC)C(c1ccc(C(=O)OC)cc1)=N[C@H]1CCCC[C@@H]21", "note": "(racemic) [Compound 4, (+/ -)-cis-9-ethoxy-8-methoxy-6-[4-(methoxycarbonyl)phenyl]-1,2,3,4,4a,10b-hexahydrophenanthridine]", "-log IC50 (Inhibition of PDE IV Activity)": 8.73},
      {"smiles": "COC(=O)c1ccc(C2=N[C@H]3CCCC[C@@H]3c3cc(OC)c(OC)cc32)cc1", "note": "(racemic) [Compound 8, (+/ -)-trans-8,9-dimethoxy-6-[4-(methoxycarbonyl)phenyl]-1,2,3,4,4a,10b-hexahydrophenanthridine]", "-log IC50 (Inhibition of PDE IV Activity)": 5.92},
      {"smiles": "COC(=O)c1ccc(C2=N[C@H]3CCCC[C@H]3c3cc(OC)c(OC)cc32)cc1", "note": "(racemic) [Compound 1, (+/ -)-cis-8,9-dimethoxy-6-[4-(methoxycarbonyl)phenyl]-1,2,3,4,4a,10b-hexahydrophenanthridine]", "-log IC50 (Inhibition of PDE IV Activity)": 7.39},
      {"smiles": "CCOc1cc2c(cc1OCC)[C@@H]1CCCC[C@@H]1N=C2c1ccccc1C(=O)OC", "note": "(racemic) [Compound 7, (+/ -)-cis-8,9-diethoxy-6-[2-(methoxycarbonyl)phenyl]-1,2,3,4,4a,10b-hexahydrophenanthridine]", "-log IC50 (Inhibition of PDE IV Activity)": 6.34},
      {"smiles": "COC(=O)c1ccc(C2=N[C@H]3CCCC[C@H]3c3cc(OC)c(OC)cc32)cc1", "note": "(single isomer, unassigned) [Compound 12, (+)-cis-8,9-dimethoxy-6-[4-(methoxycarbonyl)phenyl]-1,2,3,4,4a,10b-hexahydrophenanthridine]", "-log IC50 (Inhibition of PDE IV Activity)": 4.95},
      {"smiles": "COc1cc2c(cc1OC)[C@@H]1CCCC[C@@H]1N=C2c1ccc(C(=O)OCC2CC2)cc1", "note": "(racemic) [Compound 13, (+/ -)-cis-8,9-dimethoxy-6-[4-(cyclopropylmethoxycarbonyl)phenyl]-1,2,3,4,4a ,10b-hexahydrophenanthridine]", "-log IC50 (Inhibition of PDE IV Activity)": 7.39},
      {"smiles": "COC(=O)c1ccc(C2=N[C@H]3CCCC[C@H]3c3cc(OC(F)F)c(OC)cc32)cc1", "note": "(racemic) [Compound 3, (+/ -)-cis-9-difluoromethoxy-8-methoxy-6-[4-(methoxycarbonyl)phenyl]-1,2,3,4,4a ,10b-hexahydrophenanthridine]", "-log IC50 (Inhibition of PDE IV Activity)": 7.73},
      {"smiles": "CCOc1cc2c(cc1OC)[C@@H]1CCCC[C@@H]1N=C2c1ccc(C(=O)OC)cc1", "note": "(racemic) [Compound 5, (+/ -)-cis-8-ethoxy-9-methoxy-6-[4-(methoxycarbonyl)phenyl]-1,2,3,4,4a,10b-hexahydrophenanthridine]", "-log IC50 (Inhibition of PDE IV Activity)": 7.02},
      {"smiles": "CCOc1cc2c(cc1OCC)[C@@H]1CCCC[C@@H]1N=C2c1ccc(C(=O)OC)cc1", "note": "(racemic) [Compound 2, (+/ -)-cis-8,9-diethoxy-6-[4-(methoxycarbonyl)phenyl]-1,2,3,4,4a,10b-hexahydrophenanthridine]", "-log IC50 (Inhibition of PDE IV Activity)": 8.84},
      {"smiles": "CCOc1cc2c(cc1OC)C(c1ccc(C(=O)O)cc1)=N[C@H]1CCCC[C@@H]21.Cl", "note": "(racemic) [Compound 16, (+/ -)-cis-6-(4-carboxyphenyl)-9-ethoxy-8-methoxy-1,2,3,4,4a,10b-hexahydrophenanthridine hydrochloride]", "-log IC50 (Inhibition of PDE IV Activity)": 8.66},
      {"smiles": "CCOc1cc2c(cc1OCC)[C@@H]1CCCC[C@@H]1N=C2c1ccc(C(=O)OC)cc1", "note": "(single isomer, unassigned) [Compound 9, (-)-cis-8,9-diethoxy-6-[4-(methoxycarbonyl)phenyl]-1,2,3,4,4a,10b-hexahydrophenanthridine]", "-log IC50 (Inhibition of PDE IV Activity)": 8.52},
      {"smiles": "CCOc1cc2c(cc1OCC)[C@@H]1CCCC[C@@H]1N=C2c1cccc(C(=O)OC)c1", "note": "(racemic) [Compound 6, (+/-)-cis-8,9-diethoxy-6-[3-(methoxycarbonyl)phenyl]-1,2,3,4,4a ,10b-hexahydrophenanthridine]", "-log IC50 (Inhibition of PDE IV Activity)": 8.14},
      {"smiles": "COc1cc2c(cc1OC(F)F)[C@@H]1CCCC[C@@H]1N=C2c1ccc(C(=O)O)cc1.Cl", "note": "(racemic) [Compound 19, (+/ -)-cis-6-(4-carboxyphenyl)-9-difluoromethoxy-8-methoxy-1,2,3,4,4a,10b-hexahydrophenanthridine hydrochloride]", "-log IC50 (Inhibition of PDE IV Activity)": 7.55},
      {"smiles": "CCOc1cc2c(cc1OCC)[C@@H]1CCCC[C@@H]1N=C2c1ccc(C(=O)OC)cc1", "note": "(single isomer, unassigned) [Compound 10, (+)-cis-8,9-diethoxy-6-[4-(methoxycarbonyl)phenyl]-1,2,3,4,4a,10b-hexahydrophenanthridine]", "-log IC50 (Inhibition of PDE IV Activity)": 7.48},
      {"smiles": "CNC(=O)c1ccc(C2=N[C@H]3CCCC[C@H]3c3cc(OC)c(OC)cc32)cc1", "note": "(racemic) [Compound 20, (+/-)-cis-6-[4-(N-methylaminocarbonyl)phenyl]-8,9-dimethoxy-1,2,3,4,4a ,10b-hexahydrophenanthridine]", "-log IC50 (Inhibition of PDE IV Activity)": 5.18},
      {"smiles": "CCOc1cc2c(cc1OC)[C@@H]1CCCC[C@@H]1N=C2c1ccc(C(=O)O)cc1.Cl", "note": "(racemic) [Compound 17, (+/ -)-cis-6-(4-carboxyphenyl)-8-ethoxy-9-methoxy-1,2,3,4,4a,10b-hexahydrophenanthridine hydrochloride]", "-log IC50 (Inhibition of PDE IV Activity)": 6.79},
      {"smiles": "COC(=O)c1ccc(C2=N[C@H]3CCCC[C@H]3c3cc(OC)c(OC)cc32)cc1", "note": "(single isomer, unassigned) [Compound 11, (-)-cis-8,9-dimethoxy-6-[4-(methoxycarbonyl)phenyl]-1,2,3,4,4a,10b-hexahydrophenanthridine]", "-log IC50 (Inhibition of PDE IV Activity)": 7.52},
      {"smiles": "COc1cc2c(cc1OC)[C@@H]1CCCC[C@@H]1N=C2c1ccc(C(=O)O)cc1.Cl", "note": "(racemic) [Compound 15, (+/ -)-cis-6-(4-carboxyphenyl)-8,9-dimethoxy-1,2,3,4,4a,10b-hexahydrophenanthridine hydrochloride]", "-log IC50 (Inhibition of PDE IV Activity)": 6.81},
      {"smiles": "CCOc1cc2c(cc1OCC)[C@@H]1CCCC[C@@H]1N=C2c1ccc(C(=O)O)cc1.Cl", "note": "(racemic) [Compound 14, (+/ -)-cis-6-(4-carboxyphenyl)-8,9-diethoxy-1,2,3,4,4a,10b-hexahydrophenanthridine hydrochloride]", "-log IC50 (Inhibition of PDE IV Activity)": 8.27},
      {"smiles": "CCOc1cc2c(cc1OCC)[C@@H]1CCCC[C@@H]1N=C2c1cccc(C(=O)O)c1.Cl", "note": "(racemic) [Compound 18, (+/ -)-cis-6-(3-carboxyphenyl)-8,9-diethoxy-1,2,3,4,4a,10b-hexahydrophenanthridine hydrochloride]", "-log IC50 (Inhibition of PDE IV Activity)": 7.69}
    ]}
  ]
}
